In US20260248784A1, “BTK Degrader and Use Thereof” (JIANGSU VCARE PHARMATECH CO., LTD., priority 2023, published 2026):

These compounds were tested on mino cells (assay: Activity test in Mino cells (CCK8 proliferation inhibition)). Settings: 3 days, read-out: Cell inhibition IC50.
Format: cell-based
Description: Cell culture: mino cells (culture conditions: RPMI1640 medium+15% FBS, 37° C., 5% CO2). Cell plating: The cells subcultured into the logarithmic growth phase were collected and transferred into a centrifuge tube, and centrifuged at 800 rpm for 5 min. The cells were resuspended in complete medium and counted. The cells were diluted and adjusted to a final concentration of 200000 cells/mL. The cells were then seeded into a 96-well plate with 100 μL per well. Cell administration: Each group of drug solutions was added into the 96-well plate, 100 μL per well, n=3 for each drug concentration. Meanwhile, negative wells (n=6) and blank wells (n=3) were set up. The 96-well plate was incubated in the incubator for further 3 days. CCK8 reagent was added to the 96-well plate, 20 μL per well, and then the plate was placed in the incubator for further 4 h. The absorbance of the solution was measured at a wavelength of 450 nm using an enzyme reader. The proliferation inhibition rate was calculated and the half inhibitory concentration IC50 value was calculated.

`COc1ccc(F)cc1C(=O)NCc1ccc(-c2nn(-c3ccc(N4CCN(CC5CCN(c6ccc(N7CCC(=O)NC7=O)c(C)c6)CC5)CC4)nc3)c3ncnc(N)c23)cc1C` [Compound I-4] gave an IC50 of 62 nM.

Same assay, conditions: Homo sapiens, 72 h, 3 days, read-out: Cell inhibition IC50

`COc1ccc(F)cc1C(=O)NCc1ccc(-c2nn(-c3ccc(N4CCN(CC5CCN(c6ccc(N7CCC(=O)NC7=O)cc6)CC5)CC4)nc3)c3ncnc(N)c23)cc1` [Compound I-3, N-(4-(4-amino-1-(6-(4-((1-(4-(2,4-dioxotetrahydropyrimidin-1(2H)-yl)phenyl)piperidin-4-yl)methyl)piperazin-1-yl)pyridin-3-yl)-1H-pyrazolo[3,4-d]pyrimidin-3-yl)benzyl)-5-fluoro-2-methoxybenzamide] and `COc1ccc(F)cc1C(=O)NCc1ccc(-c2nn(-c3ccc(N4CCN(CC5CCN(c6ccc(N7CCC(=O)NC7=O)c(C)c6)CC5)CC4)cc3)c3ncnc(N)c23)cc1` [Compound I-9] cannot be ordered by IC50: 16 nM for the first, < 25 nM for the second.

First: COc1ccc(F)cc1C(=O)NCc1ccc(-c2nn(-c3ccc(C4CCN(CC5CCN(c6ccc(N7CCC(=O)NC7=O)c(C)c6)CC5)CC4)cc3)c3ncnc(N)c23)cc1 [Compound I-5, N-(4-(4-amino-1-(4-(1-((1-(4-(2,4-dioxotetrahydropyrimidin-1(2H)-yl)-3-methylphenyl)piperidin-4-yl)methyl)piperidinyl)phenyl)-1H-pyrazolo[3,4-d]pyrimidin-3-yl)benzyl)-5-fluoro-2-methoxybenzamide]
Second: COc1ccc(F)cc1C(=O)NCc1ccc(-c2nn(-c3ccc(C4CCN(CC5CCN(c6ccc(N7CCC(=O)NC7=O)c(C)c6)CC5)CC4)nc3)c3ncnc(N)c23)cc1 [Compound I-7, N-(4-(4-amino-1-(6-(1-((1-(4-(2,4-dioxotetrahydropyrimidin-1(2H)-yl)-3-methylphenyl)piperidin-4-yl)methyl)piperidin-4-yl)pyridin-3-yl)-1H-pyrazolo[3,4-d]pyrimidin-3-yl)benzyl)-5-fluoro-2-methoxybenzamide]
The IC50 of the first is higher: 84 nM for the first, < 50 nM for the second. The second is the more potent here.

`COc1ccc(F)cc1C(=O)NCc1ccc(-c2nn(-c3ccc(C4CCN(CC5CCN(c6ccc(N7CCC(=O)NC7=O)cc6)CC5)CC4)cc3)c3ncnc(N)c23)cc1` [Compound I-6, N-(4-(4-amino-1-(4-(1-((1-(4-(2,4-dioxotetrahydropyrimidin-1(2H)-yl)phenyl)piperidin-4-yl)methyl)piperidinyl)phenyl)-1H-pyrazolo[3,4-d]pyrimidin-3-yl)benzyl)-5-fluoro-2-methoxybenzamide] and `COc1ccc(F)cc1C(=O)NCc1ccc(-c2nn(-c3ccc(N4CCC(CN5CCN(c6ccc(N7CCC(=O)NC7=O)c(C)c6)CC5)CC4)cc3)c3ncnc(N)c23)cc1` [Compound I-42] cannot be ordered by IC50: 16 nM for the first, < 25 nM for the second.

`COc1ccc(F)cc1C(=O)NCc1ccc(-c2nn(-c3ccc(N4CCN(CC5CCN(c6ccc(N7CCC(=O)NC7=O)c(C)c6)CC5)CC4)cc3)c(N)c2C(N)=O)cc1` [Compound I-8] and `COc1ccc(F)cc1C(=O)NCc1ccc(-c2nn(-c3ccc(C4CCN(CC5CCN(c6ccc(N7CCC(=O)NC7=O)c(C)c6)CC5)CC4)cc3)c(N)c2C(N)=O)cc1` [Compound I-11, 5-amino-1-(4-(1-(1-(4-(2,4-dioxotetrahydropyrimidin-1(2H)-yl)-3-methylphenyl)piperidin-4-yl)methyl)piperidin-4-yl)phenyl)-3-(4-(((5-fluoro-2-methoxybenzamido)methyl)phenyl)-1H-pyrazole-4-carboxamide] cannot be ordered by IC50: < 25 nM for the first, < 25 nM for the second.

`COc1ccc(F)cc1C(=O)NCc1ccc(-c2nn(-c3ccc(C4CCN(CC5CCN(c6ccc(N7CCC(=O)NC7=O)c(C)c6)CC5)CC4)nc3)c(N)c2C(N)=O)cc1` [Compound I-12] and `COc1ccc(F)cc1C(=O)NCc1ccc(-c2nn(-c3ccc(C4CCN(CC5CCN(c6ccc(N7CCC(=O)NC7=O)c(C)c6)CC5)CC4)cc3)c3ncnc(N)c23)cc1F` [Compound I-44, N-(4-(4-amino-1-(4-(1-((1-(4-(2,4-dioxotetrahydropyrimidin-1(2H)-yl)-3-methylphenyl)piperidin-4-yl)methyl)piperidinyl)phenyl)-1H-pyrazolo[3,4-d]pyrimidin-3-yl)-2-fluorobenzyl)-5-fluoro-2-methoxybenzamide] cannot be ordered by IC50: < 25 nM for the first, < 25 nM for the second.

`COc1ccc(F)cc1C(=O)NCc1ccc(-c2nn(-c3ccc(C4CCN(CC5CCN(c6ccc(C7CCC(=O)NC7=O)cc6)CC5)CC4)nc3)c3ncnc(N)c23)cc1` (stereo not drawn) [Compound I-24] and `COc1ccc(F)cc1C(=O)NCc1ccc(-c2nn(-c3ccc(N4CCN(CC5CCN(c6ccc7c(c6)CN(C6CCC(=O)NC6=O)C7=O)CC5)CC4)nc3)c3ncnc(N)c23)cc1` (stereo not drawn) [II-1] cannot be ordered by IC50: < 100 nM for the first, 4 nM for the second.

`COc1ccc(F)cc1C(=O)NCc1ccc(-c2nc(-c3ccc(N4CCN(CC5CCN(c6ccc(N7CCC(=O)NC7=O)c(C)c6)CC5)CC4)nc3)n3ccnc(N)c23)cc1` [Compound I-30] and `CCc1cc(-c2nc(-c3ccc(CNC(=O)c4cc(F)ccc4OC)cc3)c3c(N)nccn23)ccc1N1CCN(CC2CCN(c3ccc(N4CCC(=O)NC4=O)c(C)c3)CC2)CC1` [Compound I-49] cannot be ordered by IC50: < 50 nM for the first, < 100 nM for the second.

`COc1ccc(F)cc1C(=O)NCc1ccc(-c2nn(-c3ccc(N4CCN(CC5CCN(c6ccc(N7CCC(=O)NC7=O)c(C)c6)CC5)C[C@H]4C)nc3)c3ncnc(N)c23)cc1` [Compound I-41] and `COc1ccc(F)cc1C(=O)NCc1ccc(-c2nn(-c3ccc(N4CCN(CC5CCN(c6ccc(N7CCC(=O)NC7=O)c(C)c6)CC5)CC4)nc3)c3ncnc(N)c23)c(F)c1F` [Compound I-43] cannot be ordered by IC50: < 25 nM for the first, < 50 nM for the second.

`COc1ccc(F)cc1C(=O)NCc1ccc(-c2nc(-c3ccc(N4CCN(CC5CCN(c6ccc(N7CCC(=O)NC7=O)c(C)c6)CC5)CC4)cc3)n3ccnc(N)c23)cc1F` [Compound I-45] and `COc1ccc(F)cc1C(=O)NCc1ccc(-c2nc(-c3ccc(N4CCN(CC5CCN(c6ccc(N7CCC(=O)NC7=O)c(C)c6)CC5)CC4)cc3)n3ccnc(N)c23)c(F)c1` [Compound I-47] cannot be ordered by IC50: < 50 nM for the first, < 25 nM for the second.

`COc1ccc(F)cc1C(=O)NCc1ccc(-c2nn(-c3ccc(N4CCN(CC5CCN(c6ccc(N7CCC(=O)NC7=O)c(C)c6)CC5)CC4)cc3)c3ccnc(N)c23)cc1` [Compound I-46] and `COc1ccc(F)cc1C(=O)NCc1ccc(-n2c(=O)n(-c3ccc(N4CCN(CC5CCN(c6ccc(N7CCC(=O)NC7=O)c(C)c6)CC5)CC4)cc3)c3ccnc(N)c32)cc1` [Compound I-48] cannot be ordered by IC50: < 100 nM for the first, < 25 nM for the second.

`COc1ccc(F)cc1C(=O)NCc1ccc(-c2nc(-c3ccc(C4=CCN(CC5CCN(c6ccc(N7CCC(=O)NC7=O)c(C)c6)CC5)CC4)cc3)n3ccnc(N)c23)cc1` [Compound I-50] and `COc1ccc(F)cc1C(=O)NCc1ccc(-c2nc(-c3ccc(N4CC5CC(C4)N5CC4CCN(c5ccc(N6CCC(=O)NC6=O)c(C)c5)CC4)cc3)n3ccnc(N)c23)cc1` [Compound I-53] cannot be ordered by IC50: < 25 nM for the first, < 50 nM for the second.

`COc1ccc(F)cc1C(=O)NCc1ccc(-c2nc(-c3ccc(N4CCN(CC5CCN(c6ccc(N7CCC(=O)NC7=O)c(C)c6)CC5)CC4)c(OC)c3)n3ccnc(N)c23)cc1` [Compound I-51] and `COc1ccc(F)cc1C(=O)NCc1ccc(-n2c(=O)n(-c3ccc(N4CCN(CC5CCN(c6ccc(N7CCC(=O)NC7=O)c(C)c6)CC5)CC4)nc3)c3ccnc(N)c32)cc1` [Compound I-52, N-(4-(4-amino-1-(6-(4-((1-(4-(2,4-dioxotetrahydropyrimidin-1(2H)-yl)-3-methylphenyl)piperidin-4-yl)methyl)piperazin-1-yl)pyridin-3-yl)-2-oxo-1,2-dihydro-3H-imidazo[4,5-c]pyridin-3-yl)benzyl)-5-fluoro-2-methoxybenzamide] cannot be ordered by IC50: < 25 nM for the first, < 50 nM for the second.

`Cc1cc(N2CCC(CN3CCN(c4ccc(-c5nc(-c6ccc(Oc7ccccc7)cc6)c6c(N)nccn56)cn4)CC3)CC2)ccc1N1CCC(=O)NC1=O` [Compound I-54, 1-(4-(4-((4-(5-(8-amino-1-(4-phenoxyphenyl)imidazo[1,5-a]pyrazin-3-yl)pyridin-2-yl)piperazin-1-yl)methyl)piperidin-1-yl)-2-methylphenyl)dihydropyrimidine-2,4(1H,3H)-dione] and `Cc1cc(N2CCC(CN3CCN(c4ccc(-n5nc(-c6ccc(Oc7ccccc7)cc6)c6c(N)ncnc65)cc4)CC3)CC2)ccc1N1CCC(=O)NC1=O` [Compound I-55] cannot be ordered by IC50: < 50 nM for the first, < 100 nM for the second.

`COc1ccc(F)cc1C(=O)NCc1ccc(-c2nn(-c3ccc(N4CCN(CC5CCN(c6ccc7c(c6)CN(C6CCC(=O)NC6=O)C7=O)CC5)CC4)nc3)c3ncnc(N)c23)cc1C` (stereo not drawn) [II-2, N-(4-(4-amino-1-(6-(4-((1-(2-(2,6-dioxopiperidin-3-yl)-1-oxoisoindolin-5-yl)piperidin-4-yl)methyl)piperazin-1-yl)pyridin-3-yl)-1H-pyrazolo[3,4-d]pyrimidin-3-yl)-2-methylbenzyl)-5-fluoro-2-methoxybenzamide] and `COc1ccc(F)cc1C(=O)NCc1ccc(-c2nn(-c3ccc(N4CCC(CN5CCN(c6ccc7c(c6)C(=O)N(C6CCC(=O)NC6=O)C7)CC5)CC4)nc3)c3ncnc(N)c23)cc1` (stereo not drawn) [II-4, N-(4-(4-amino-1-(6-(4-((4-(2-(2,6-dioxopiperidin-3-yl)-3-oxoisoindolin-5-yl)piperazin-1-yl)methyl)piperidin-1-yl)pyridin-3-yl)-1H-pyrazolo[3,4-d]pyrimidin-3-yl)benzyl)-5-fluoro-2-methoxybenzamide] are within 1.5-fold of each other in IC50: 17 nM for the first, 12 nM for the second.

Compound `COc1ccc(F)cc1C(=O)NCc1ccc(-c2nn(-c3ccc(N4CCN(CC5CCN(c6ccc7c(c6)C(=O)N(C6CCC(=O)NC6=O)C7=O)CC5)CC4)nc3)c3ncnc(N)c23)cc1` (stereo not drawn) [II-3, N-(4-4-amino-1-(6-(4-(1-(2,6-dioxopiperidin-3-yl)-1,3-dioxoisoindolin-5-ylpiperidin-4-yl)methylpiperazin-1-ylpyridin-3-yl)-1H-pyrazolo[3,4-d]pyrimidin-3-yl)benzyl)-5-fluoro-2-methoxybenzamide] has an IC50 of 17 nM.
